Biological target: T1, human KCNQ2 and KCNQ3 (Homo sapiens, UniProt O43525+O43526)
T1 construct: expressed in transfected cells; host or cells: HEK293
Assay: KCNQ 2/3 channel activation, thallium flux FLIPR assay (BTC-AM dye) in HEK293 cells
Format: cell-based
Details: for Emax: HEK293, maximum response relative to response of retigabine at 10 μM set at 100%, read-out: Max response; for EC50: HEK293 cells stably expressing human KCNQ2 and KCNQ3, compound incubated 4 minutes, Tl+ flux fluorescence
Method: The following example describes the assay that can be used to identify compounds that activate KCNQ 2/3 channels.
HEK293 cells stably expressing human KCNQ2 and KCNQ3 were seeded in 96-well, black-walled, clear-bottomed, poly-D-lysine coated plates (BD Biosciences, Bedford, Mass.) at a density of 1×10^5 cells per well 24 hours before the assay. On the assay day, BTC-AM dye (Invitrogen, Carlsbad, Calif.) was loaded into the cells by replacing the cell culture medium with 100 μL/well of 4 μM dye in DPBS. Dye loading was allowed to proceed for 2 hours at room temperature and then cells were washed twice in 100 μL/well of assay buffer (in mM: 10 HEPES pH 7.3, 5 glucose, 140 Na-gluconate, 2.5 K-gluconate, 3.6 Ca-gluconate, 2 MgSO4, 0.1 Ouabain) to remove unloaded dye. Cells were incubated in 50 μL of assay buffer before loading onto a FLIPR system (Molecular Devices, Sunnyvale, Calif.). Various concentrations of compounds to be assayed were added to the cells in 50 μL of assay buffer and incubated for 4 minutes. The fluorescence signal was initiated by adding 100 μL of assay buffer containing 6 mM TlNO3 and 10 mM K2SO4. Fluors were excited using the 488-nm line of an argon laser and emission was filtered using a 540±30 nm bandpass filter. Fluorescent signals were recorded for 3 minutes. Responses over baseline values were plotted versus concentrations of test compounds to obtain an EC50 value. The maximum response for each test compound was determined relative to the response produced at 10 μM by retigabine. The maximum response of retigabine at 10 μM was set at 100%.

T1 sequence (O43526 whole entry): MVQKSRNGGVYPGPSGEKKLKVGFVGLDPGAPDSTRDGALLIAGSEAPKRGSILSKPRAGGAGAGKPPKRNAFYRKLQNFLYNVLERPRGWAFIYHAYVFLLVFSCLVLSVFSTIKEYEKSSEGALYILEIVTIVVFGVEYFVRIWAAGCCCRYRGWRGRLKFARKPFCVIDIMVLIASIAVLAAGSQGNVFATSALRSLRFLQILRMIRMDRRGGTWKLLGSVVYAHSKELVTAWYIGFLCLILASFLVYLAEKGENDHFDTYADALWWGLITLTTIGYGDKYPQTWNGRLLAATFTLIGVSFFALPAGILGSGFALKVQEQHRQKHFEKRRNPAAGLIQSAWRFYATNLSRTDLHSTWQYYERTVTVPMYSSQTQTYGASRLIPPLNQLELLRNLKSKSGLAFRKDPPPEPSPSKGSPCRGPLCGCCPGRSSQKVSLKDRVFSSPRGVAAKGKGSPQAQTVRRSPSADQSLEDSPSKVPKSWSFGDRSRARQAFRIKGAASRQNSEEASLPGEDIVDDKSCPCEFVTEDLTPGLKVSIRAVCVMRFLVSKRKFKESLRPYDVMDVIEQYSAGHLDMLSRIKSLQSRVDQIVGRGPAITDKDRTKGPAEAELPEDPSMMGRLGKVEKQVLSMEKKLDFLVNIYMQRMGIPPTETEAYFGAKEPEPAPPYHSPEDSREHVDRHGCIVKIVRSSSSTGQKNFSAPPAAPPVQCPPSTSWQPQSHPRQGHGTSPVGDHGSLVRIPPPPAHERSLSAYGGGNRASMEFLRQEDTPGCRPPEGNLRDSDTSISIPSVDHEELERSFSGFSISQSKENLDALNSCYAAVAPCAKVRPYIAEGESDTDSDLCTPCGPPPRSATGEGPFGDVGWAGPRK
T1 sequence (O43525 whole entry): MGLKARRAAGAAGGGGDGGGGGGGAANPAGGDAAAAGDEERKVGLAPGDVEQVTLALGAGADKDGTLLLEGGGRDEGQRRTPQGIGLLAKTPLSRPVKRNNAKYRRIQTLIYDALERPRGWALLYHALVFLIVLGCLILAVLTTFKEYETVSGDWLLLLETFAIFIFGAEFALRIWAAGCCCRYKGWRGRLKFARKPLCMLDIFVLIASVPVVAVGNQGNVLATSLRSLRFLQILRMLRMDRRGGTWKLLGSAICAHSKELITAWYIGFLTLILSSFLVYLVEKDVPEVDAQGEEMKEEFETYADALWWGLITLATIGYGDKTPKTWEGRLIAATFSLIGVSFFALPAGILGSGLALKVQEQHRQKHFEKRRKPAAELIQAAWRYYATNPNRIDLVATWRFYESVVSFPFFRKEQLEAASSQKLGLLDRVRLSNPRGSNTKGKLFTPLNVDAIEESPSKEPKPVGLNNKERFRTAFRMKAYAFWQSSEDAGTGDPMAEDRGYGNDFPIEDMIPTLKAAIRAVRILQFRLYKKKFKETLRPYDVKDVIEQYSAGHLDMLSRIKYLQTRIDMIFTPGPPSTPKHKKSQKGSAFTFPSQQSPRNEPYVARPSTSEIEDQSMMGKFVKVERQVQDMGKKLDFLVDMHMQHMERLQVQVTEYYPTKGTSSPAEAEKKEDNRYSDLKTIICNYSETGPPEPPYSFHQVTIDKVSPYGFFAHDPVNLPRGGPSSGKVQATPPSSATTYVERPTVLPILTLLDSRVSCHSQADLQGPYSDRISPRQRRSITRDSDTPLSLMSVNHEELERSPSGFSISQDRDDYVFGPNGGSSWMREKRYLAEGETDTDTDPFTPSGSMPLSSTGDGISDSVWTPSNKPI

Row | Emax | EC50 | SMILES
1 | 139% | 438 nM | CCc1cc2c(=O)n(NC(=O)CC34CC5CC(CC(C5)C3)C4)cnc2s1 [Example 20, 2-(1-adamantyl)-N-(6-ethyl-4-oxothieno[2,3-d]pyrimidin-3(4H)-yl)acetamide]
2 | 132% | 403 nM | CC(C)c1nc2ccccc2c(=O)n1NC(=O)CC12CC3CC(CC(Cl)(C3)C1)C2 [Example 21, 2-[3-chloro-1-adamantyl]-N-(2-isopropyl-4-oxoquinazolin-3(4H)-yl)acetamide]
3 | 118% | 3010 nM | O=C(CC12CC3CC(CC(C3)C1)C2)Nn1c(COc2ccccc2)nc2ccccc2c1=O [Example 25, 2-(1-adamantyl)-N-[4-oxo-2-(phenoxymethyl)quinazolin-3(4H)-yl]acetamide]
4 | 140% | 2680 nM | O=C(CC12CC3CC(CC(C3)C1)C2)Nn1cnc2ccsc2c1=O [Example 26, 2-(1-adamantyl)-N-(4-oxothieno[3,2-d]pyrimidin-3(4H)-yl)acetamide]
5 | 199% | 846 nM | O=C(CC12CC3CC(CC(C3)C1)C2)Nn1cnc2scc(-c3ccc(F)cc3)c2c1=O [Example 27, 2-(1-adamantyl)-N-[5-(4-fluorophenyl)-4-oxothieno[2,3-d]pyrimidin-3(4H)-yl]acetamide]
6 | 93.3% | 1750 nM | O=C(CC12CC3CC(CC(C3)C1)C2)Nn1c(=O)[nH]c2ccccc2c1=O [Example 28, 2-(1-adamantyl)-N-(2,4-dioxo-1,4-dihydroquinazolin-3(2H)-yl)acetamide]
7 | 20.8% | > 30000 nM | Cc1nc2cc(Cl)ccc2c(=O)n1NC(=O)CC12CC3CC(CC(C3)C1)C2 [Example 35, 2-(1-adamantyl)-N-(7-chloro-2-methyl-4-oxoquinazolin-3(4H)-yl)acetamide]
8 | 10.8% | > 30000 nM | O=C(CC12CC3CC(CC(C3)C1)C2)Nn1cnc2ccc(Br)cc2c1=O [Example 36, 2-(1-adamantyl)-N-(6-bromo-4-oxoquinazolin-3(4H)-yl)acetamide]
9 | 9.51% | > 30000 nM | O=C(CC12CC3CC(CC(C3)C1)C2)Nn1cnc2sc(-c3ccccc3)cc2c1=O [Example 37, 2-(1-adamantyl)-N-(4-oxo-6-phenylthieno[2,3-d]pyrimidin-3(4H)-yl)acetamide]
10 | -43.5% | > 30000 nM | O=C(Nn1c(-c2ccccc2)nc2ccccc2c1=O)C1C2CC3CC(C2)CC1C3 (stereo not shown) [Example 38, N-(4-oxo-2-phenylquinazolin-3(4H)-yl)adamantane-2-carboxamide]
11 | -23.5% | > 30000 nM | O=C(Nn1c(-c2ccccc2)nc2ccccc2c1=O)[C@@H]1[C@H]2[C@@H]3CC[C@@H](C3)[C@@H]12 [Example 39, (exo,exo)-N-(4-oxo-2-phenylquinazolin-3(4H)-yl)tricyclo[3.2.1.0^2,4]octane-3-carboxamide]
12 | 19.2% | > 30000 nM | CC(C)Sc1nc2sc(-c3ccccc3)cc2c(=O)n1NC(=O)CC12CC3CC(CC(C3)C1)C2 [Example 40, 2-(1-adamantyl)-N-[2-(isopropylthio)-4-oxo-6-phenylthieno[2,3-d]pyrimidin-3(4H)-yl]acetamide]
13 | 81.8% | 2010 nM | Cc1nc2sc3c(c2c(=O)n1NC(=O)CC12CC4CC(CC(C4)C1)C2)CCCC3 [Example 44, 2-(1-adamantyl)-N-(2-methyl-4-oxo-5,6,7,8-tetrahydro[1]benzothieno[2,3-d]pyrimidin-3(4 H)-yl)acetamide]
14 | 19.6% | > 31600 nM | Cc1nc2sc3c(c2c(=O)n1NC(=O)CC12CC4CC(CC(C4)C1)C2)CCC3 [Example 45, 2-(1-adamantyl)-N-(2-methyl-4-oxo-6,7-dihydro-4H-cyclopenta[4,5]thieno[2,3-d]pyrimidin-3(5H)-yl)acetamide]
15 | 130% | 454 nM | Cc1sc2nc(C)n(NC(=O)CC34CC5CC(CC(C5)C3)C4)c(=O)c2c1-c1ccccc1 [Example 46, 2-(1-adamantyl)-N-(2,6-dimethyl-4-oxo-5-phenylthieno[2,3-d]pyrimidin-3(4H)-yl)acetamide]
16 | 56.7% | 652 nM | Cc1cc2c(=O)n(NC(=O)CC34CC5CC(CC(C5)C3)C4)c(C)nc2s1 [Example 47, 2-(1-adamantyl)-N-(2,6-dimethyl-4-oxothieno[2,3-d]pyrimidin-3(4H)-yl)acetamide]
17 | 89.8% | 10900 nM | Cc1nc2sc3c(c2c(=O)n1NC(=O)CC12CC4CC(CC(C4)C1)C2)CCCCC3 [Example 48, 2-(1-adamantyl)-N-(2-methyl-4-oxo-6,7,8,9-tetrahydro-4H-cyclohepta[4,5]thieno[2,3-d]pyrimidin-3(5H)-yl)acetamide]
18 | 65.2% | 779 nM | Cc1sc2nc(C)n(NC(=O)CC34CC5CC(CC(C5)C3)C4)c(=O)c2c1C [Example 49, 2-(1-adamantyl)-N-(2,5,6-trimethyl-4-oxothieno[2,3-d]pyrimidin-3(4H)-yl)acetamide]
19 | -0.535% | > 31600 nM | O=C(CC12CC3CC(CC(Cl)(C3)C1)C2)Nn1c(C2CC2)nc2cc(C(F)(F)F)ccc2c1=O [Example 50, 2-[3-chloro-1-adamantyl]-N-[2-cyclopropyl-4-oxo-7-(trifluoromethyl)quinazolin-3(4H)-yl]acetamide]
20 | 152% | 160 nM | O=C(CC12CC3CC(CC(Cl)(C3)C1)C2)Nn1c(C2CC2)nc2ccccc2c1=O [Example 51, 2-[3-chloro-1-adamantyl]-N-(2-cyclopropyl-4-oxoquinazolin-3(4H)-yl)acetamide]
21 | 109% | 7910 nM | CCc1nc2sccc2c(=O)n1NC(=O)CC12CC3CC(CC(Cl)(C3)C1)C2 [Example 52, 2-[3-chloro-1-adamantyl]-N-(2-ethyl-4-oxothieno[2,3-d]pyrimidin-3(4H)-yl)acetamide]
22 | 116% | 250 nM | O=C(CC12CC3CC(CC(Cl)(C3)C1)C2)Nn1c(C2CC2)nc2cc(F)ccc2c1=O [Example 53]
23 | 5.5% | > 31600 nM | CCc1nc2ccccc2c(=O)n1NC(=O)C12CC3CC(CC(C3)O1)C2 [Example 54, N-(2-ethyl-4-oxoquinazolin-3(4H)-yl)-2-oxatricyclo[3.3.1.1^3,7]decane-1-carboxamide]
24 | 150% | 417 nM | CCc1nc2ccccc2c(=O)n1NC(=O)C[C@@H]1C[C@@H]2CC[C@@H](C2)C1 [Example 55, endo 2-[bicyclo[3.2.1]oct-3-yl]-N-(2-ethyl-4-oxoquinazolin-3(4H)-yl)acetamide]
25 | 158% | 104 nM | CC(C)c1nc2ccccc2c(=O)n1NC(=O)CC1C2CCCC1CCC2 (stereo not shown) [Example 56, 2-bicyclo[3.3.1]non-9-yl-N-(2-isopropyl-4-oxoquinazolin-3(4H)-yl)acetamide]
26 | 148% | 344 nM | CCc1nc2ccccc2c(=O)n1NC(=O)CC1C2CCCC1CCC2 (stereo not shown) [Example 57, 2-bicyclo[3.3.1]non-9-yl-N-(2-ethyl-4-oxoquinazolin-3(4H)-yl)acetamide]
27 | 11.6% | > 31600 nM | CCc1nc2ccccc2c(=O)n1NC(=O)[C@@H]1[C@H]2[C@@H]3CC[C@@H](C3)[C@@H]12 [Example 58, (exo,exo)-N-(2-ethyl-4-oxoquinazolin-3(4H)-yl)tricyclo[3.2.1.0^2,4]octane-3-carboxamide]
28 | 16.5% | > 31600 nM | CC(C)c1nc2ccccc2c(=O)n1NC(=O)[C@@H]1[C@H]2[C@@H]3CC[C@@H](C3)[C@@H]12 [Example 59, (exo,exo)-N-(2-isopropyl-4-oxoquinazolin-3(4H)-yl)tricyclo[3.2.1.0^2,4]octane-3-carboxamide]
29 | 58% | > 31600 nM | CC(C)c1nc2ccccc2c(=O)n1NC(=O)C[C@@H]1C[C@@H]2CC(=O)C[C@@H](C2)C1 [Example 60]

— patent US8962639B2, “Potassium channel modulators” (AbbVie Inc., priority 2009, dated 2015)
